In US10011571B2, “Preparation method for aromatic heterocyclic compound used as selective JAK3 and/or JAK1 kinase inhibitor and application of aromatic heterocyclic compound” (SHENZHEN CHIPSCREEN BIOSCIENCES, LTD., priority 2014, dated 2018):

Tests used:
Type in all cases: biochemical
JAK1 = JAK1 (Homo sapiens (Human), UniProt P23458); assay: Z'-LYTE enzymatic activity detection, JAK1; settings: test compound 300 nM; for inhibition at 0.3 µM: read-out: JAK1 % inhibitory rate @300 nM
In short: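 GST-tagged human recombinant kinases with Z′-LYTE peptides (Tyr6 for JAK1, Tyr4 for JAK2 and JAK3), ATP from kit, reacted 1 h at room temperature; development 1 h, ratio 445/520 nm at 400 nm excitation gives phosphorylation. Inhibition vs solvent control at 30 nM (JAK2, JAK3) or 300 nM (JAK1); tofacitinib as positive control.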

BLK = BLK (Homo sapiens, UniProt P51451); assay: Eurofins IC50Profiler radiometric kinase assay, BLK; settings: 9 semilog concentrations
From the text: (§1) A proportion of the compounds of the present invention are subjected to kinase profile screening (KinaseProfiler™)) and enzymatic inhibitory activity (IC50Profiler™)) assay by entrusting Eurofins company (http://www.eurofins.com). Besides the kinases in the JAK family, the kinases that have been screened for their activity also include most Group 3F and Group 4 kinases (ITK, BLK, TBK1, VEGFRs, ERBBs, etc.), and blood system related kinases (Zhang J. et al. 2009, Nat. Rev. Cancer., 9: 28-39). The concentration of the test compound for kinase profile screening is 1 μM, and a gradient of 9 semilog concentration gradients are used to determine IC50. Detection is carried out according to standard procedure of Eurofins Company. Briefly, according to the requirements of different kinase reactions, 0.2 μL test compound (50 μM, dissolved in dimethyl sulfoxide (DMSO)) is added to reaction buffer containing specific kinase (the buffer system containing 20 mM MOPS, 1 mM EDTA, 0.01% Brij-35, 5% Glycerol, 0.1% β-mercaptoethanol, 1 mg/mL BSA, or 50 mM TRIS, 0.1 mM EGTA, 0.1 mM Na3VO4, 0.1% β-mercaptoethanol, 1 mg/mL BSA, based on the type of kinase used). Subsequently, a kinase specific substrate at a final concentration of 50 μM (specific substrate used for specific kinase), 10 mM Mg Acetate and isotope-labeled γ-^33P ATP (radio-activity of about 500 cpm/pmol) are sequentially added to a total volume of 10 μL for the reaction system. After incubation at room temperature for 40 min, the reaction is terminated by adding 3% phosphoric acid solution. The mixture is then transferred to a filter-type low temperature spray dryer (P30 filtermat), and washed by 75 mM phosphoric acid solution for 3 times and by methanol once. After drying, radio-activity is detected. For specific procedure, see the standard procedure provided by Eurofins Company: http://www.eurofins.com/media/9724077/kinaseprofiler_assay_protocol_guide_eurofins_v64.pdf).

TBK1 = TBK1 (Homo sapiens (Human), UniProt Q9UHD2); assay: Eurofins IC50Profiler radiometric kinase assay, TBK1; settings: 9 semilog concentrations
From the text: as §1

JAK1, sequence (P23458 whole entry): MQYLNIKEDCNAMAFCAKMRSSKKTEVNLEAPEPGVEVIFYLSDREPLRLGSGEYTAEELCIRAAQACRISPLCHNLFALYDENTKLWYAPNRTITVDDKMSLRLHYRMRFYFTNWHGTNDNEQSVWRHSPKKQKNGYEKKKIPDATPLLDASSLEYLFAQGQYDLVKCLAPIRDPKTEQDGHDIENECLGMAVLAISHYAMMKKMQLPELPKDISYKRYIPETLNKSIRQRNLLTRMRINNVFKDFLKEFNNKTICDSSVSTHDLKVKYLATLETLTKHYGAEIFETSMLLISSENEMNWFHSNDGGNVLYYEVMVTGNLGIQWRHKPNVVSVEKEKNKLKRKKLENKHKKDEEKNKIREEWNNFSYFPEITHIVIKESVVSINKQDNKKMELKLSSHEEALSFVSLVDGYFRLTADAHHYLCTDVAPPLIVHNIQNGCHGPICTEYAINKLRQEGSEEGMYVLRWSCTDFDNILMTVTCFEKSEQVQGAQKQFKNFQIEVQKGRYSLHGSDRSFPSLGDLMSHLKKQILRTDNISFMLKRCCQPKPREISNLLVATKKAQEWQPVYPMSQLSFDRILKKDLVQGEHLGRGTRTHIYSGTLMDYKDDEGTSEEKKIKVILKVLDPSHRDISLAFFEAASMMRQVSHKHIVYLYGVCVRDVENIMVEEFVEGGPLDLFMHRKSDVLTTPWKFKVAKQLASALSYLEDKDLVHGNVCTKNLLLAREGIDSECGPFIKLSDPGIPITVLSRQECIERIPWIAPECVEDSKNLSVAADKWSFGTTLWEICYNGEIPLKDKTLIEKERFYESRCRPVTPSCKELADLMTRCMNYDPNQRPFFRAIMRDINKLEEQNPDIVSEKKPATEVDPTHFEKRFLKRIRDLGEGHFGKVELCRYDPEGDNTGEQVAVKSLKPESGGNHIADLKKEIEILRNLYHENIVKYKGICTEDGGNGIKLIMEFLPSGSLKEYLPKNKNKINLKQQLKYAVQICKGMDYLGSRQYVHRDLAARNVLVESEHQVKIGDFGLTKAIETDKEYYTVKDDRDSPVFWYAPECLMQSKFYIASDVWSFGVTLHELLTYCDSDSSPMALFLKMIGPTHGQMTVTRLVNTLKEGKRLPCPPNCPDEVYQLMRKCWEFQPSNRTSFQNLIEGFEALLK
TBK1, sequence (Q9UHD2 whole entry, species assumed): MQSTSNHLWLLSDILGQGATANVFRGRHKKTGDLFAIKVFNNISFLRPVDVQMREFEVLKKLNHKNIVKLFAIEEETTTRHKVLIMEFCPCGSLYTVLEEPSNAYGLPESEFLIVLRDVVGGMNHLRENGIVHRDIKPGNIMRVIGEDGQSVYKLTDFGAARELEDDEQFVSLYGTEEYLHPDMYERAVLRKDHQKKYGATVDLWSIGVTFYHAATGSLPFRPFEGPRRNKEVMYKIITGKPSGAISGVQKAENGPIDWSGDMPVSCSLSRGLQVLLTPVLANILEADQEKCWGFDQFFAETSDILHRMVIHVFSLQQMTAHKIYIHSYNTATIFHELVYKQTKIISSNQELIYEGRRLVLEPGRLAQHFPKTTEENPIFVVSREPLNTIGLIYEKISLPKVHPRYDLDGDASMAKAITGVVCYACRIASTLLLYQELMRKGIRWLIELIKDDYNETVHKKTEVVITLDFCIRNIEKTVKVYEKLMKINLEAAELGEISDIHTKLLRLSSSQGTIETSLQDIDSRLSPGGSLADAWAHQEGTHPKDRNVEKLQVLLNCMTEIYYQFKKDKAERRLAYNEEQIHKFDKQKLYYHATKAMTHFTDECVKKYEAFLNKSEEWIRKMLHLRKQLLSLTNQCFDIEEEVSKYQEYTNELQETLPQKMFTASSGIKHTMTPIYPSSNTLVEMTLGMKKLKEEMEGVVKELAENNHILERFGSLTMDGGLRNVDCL
BLK, sequence (P51451 2-505 limits assumed): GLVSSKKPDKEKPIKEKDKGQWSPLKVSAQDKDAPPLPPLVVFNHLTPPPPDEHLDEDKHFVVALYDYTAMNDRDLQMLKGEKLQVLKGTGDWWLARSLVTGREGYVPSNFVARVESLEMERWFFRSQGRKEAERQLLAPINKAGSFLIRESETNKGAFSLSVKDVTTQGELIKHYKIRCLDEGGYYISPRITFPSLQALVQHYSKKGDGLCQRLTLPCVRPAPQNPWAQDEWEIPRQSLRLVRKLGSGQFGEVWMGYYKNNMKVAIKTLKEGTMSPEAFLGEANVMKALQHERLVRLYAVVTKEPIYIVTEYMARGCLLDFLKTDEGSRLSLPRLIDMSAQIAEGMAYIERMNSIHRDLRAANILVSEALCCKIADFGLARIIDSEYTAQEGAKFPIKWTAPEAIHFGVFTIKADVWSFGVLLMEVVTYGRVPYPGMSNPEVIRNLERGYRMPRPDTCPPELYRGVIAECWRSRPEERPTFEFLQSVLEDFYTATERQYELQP

SMILES | JAK1 RV (ratio between the inhibitory rate of the test compound and that of Xeljanz) (JAK1) | inhibition at 0.3 µM (JAK1) [%] | IC50 (BLK) [nM] | IC50 (TBK1) [nM]
C=CC(=O)N(C)c1cc(Nc2ncc(Cl)c(NCCCNC(=O)c3ccc(C#N)cc3)n2)ccc1F [Example 7, N-(3-(5-chloro-2-(4-fluoro-3-(N-methylacrylamido)phenylamino)pyrimidinyl-4-amino)propyl)-4-cyano-benzamide] | 0.58 | 56 | 286 | 162
C=CC(=O)N(C)c1cc(Nc2ncc(Cl)c(NCCCNC(=O)c3ccc(C(F)(F)F)cc3)n2)ccc1F [Example 22, N-(3-(5-chloro-2-(4-fluoro-3-(N-methylacrylamido)phenylamino)pyrimidinyl-4-amino)propyl)-4-trifluoromethylbenzamide] | 0.33 | 18 | 1660 | > 10000
C=CC(=O)N(C)c1cc(Nc2ncc(Cl)c(NCCCNC(=O)c3ccc(F)cc3)n2)ccc1F [Example 23, N-(3-(5-chloro-2-(4-fluoro-3-(N-methylacrylamido)phenylamino)pyrimidinyl-4-amino)propyl)-4-fluorobenzamide] | 0.35 | 19 | 855 | 664
